The results in this text go back to patent US20220023386A1, “METHOD FOR THE TREATMENT OR PREVENTION OF OSTEOARTHRITIS” (Chondropeptix B.V., priority 2016, published 2022).

Format in all cases: cell-based, human
In assay [1] the test system is OA articular chondrocytes. In words: Expression of OA chondrocyte phenotype marker genes by RT-qPCR after peptide exposure. The conditions noted are these: Table 2 (FIGS. 2-8), peptide 10 nM, 24 hours, vs untreated OA articular chondrocytes. Details: key: [+] denotes a significantly increased expression of chondrogenic marker BAPX1/NKX3.2 or a decreased expression of OA chondrocyte phenotypic markers ALP, MMP13, ADAMTS5, COX2, COL10A and RUNX2 in OA articular chondrocytes, in comparison to untreated OA articular chondrocytes.; [−] denotes the absence of a significant effort or a significantly decreased expression of chondrogenic marker BAPX1/NKX3.2 or an increased expression of OA chondrocyte phenotypic markers ALP, MMP13, ADAMTS5, COX2, COL10A and RUNX2 in OA articular chondrocytes, in comparison to untreated OA articular chondrocytes. How it is done:
(§1) The action of 20-mer peptides (10 nM) of SEQ ID NO: 2-15 (peptides with 1 amino acids intervals (19 amino acid overlap)) and SEQ ID NO:49 on the expression of the indicated genes was determined on a validated pool of passage 2 OA human articular chondrocytes (n=18) and compared to full-length recombinant BMP-7 (1 nM). Samples were harvested after 24 hours and analyzed for indicated genes by RT-qPCR (corrected for 28S rRNA expression and relative to control conditions (no peptide exposure)). In the graphs, numbers on the x-axis represent individual peptides according to their SEQ ID NO:, error bars represent mean±SEM, statistical differences were calculated (one-way ANOVA with bonferroni correction) to control condition. *=p<0.05 lower than control condition for COL10A1, ALP, RUNX2, COX-2, MMP13 and ADAMTS5 and higher than control condition for BAPX1/NKX3.2. Random peptide is a peptide according to SEQ ID NO: 49 with amino acid sequence […].

Assay [2] has as its system OA articular chondrocytes. The assay is described as above. Details: key to ADAMTS5 expression: [+] denotes a significantly increased expression of chondrogenic marker BAPX1/NKX3.2 or a decreased expression of OA chondrocyte phenotypic markers ALP, MMP13, ADAMTS5, COX2, COL10A and RUNX2 in OA articular chondrocytes, in comparison to untreated OA articular chondrocytes.; [−] denotes the absence of a significant effort or a significantly decreased expression of chondrogenic marker BAPX1/NKX3.2 or an increased expression of OA chondrocyte phenotypic markers ALP, MMP13, ADAMTS5, COX2, COL10A and RUNX2 in OA articular chondrocytes, in comparison to untreated OA articular chondrocytes.

The subject of assay [3] is OA articular chondrocytes. The assay is described as above. Details: key: [+] denotes a significantly increased expression of chondrogenic marker BAPX1/NKX3.2 or a decreased expression of OA chondrocyte phenotypic markers ALP, MMP13, ADAMTS5, COX2, COL10A and RUNX2 in OA articular chondrocytes, in comparison to untreated OA articular chondrocytes.; [−] denotes the absence of a significant effort or a significantly decreased expression of chondrogenic marker BAPX1/NKX3.2 or an increased expression of OA chondrocyte phenotypic markers ALP, MMP13, ADAMTS5, COX2, COL10A and RUNX2 in OA articular chondrocytes, in comparison to untreated OA articular chondrocytes. To be noted: vs untreated OA articular chondrocytes.

The subject of assay [4] is OA articular chondrocytes. The description is as above. On the set-up: key: [—] denotes the absence of a significant effect or a significantly decreased expression of chondrogenic marker BAPX1/NKX3.2 or an increased expression of OA chondrocyte phenotypic markers ALP, MMP13, ADAMTS5, COX2, COL10A and RUNX2 in OA articular chondrocytes, in comparison to untreated OA articular chondrocyts. The conditions noted are these: Table 1, 20-mer peptides with native cysteines; vs untreated OA articular chondrocytes. How it is done: as §1

In assay [5] the test system is OA articular chondrocytes. The description is as above. On the set-up: key: [—] denotes the absence of a significant effect or a significantly decreased expression of chondrogenic marker BAPX1/NKX3.2 or an increased expression of OA chondrocyte phenotypic markers ALP, MMP13, ADAMTS5, COX2, COL10A and RUNX2 in OA articular chondrocytes, in comparison to untreated OA articular chondrocyts. To be noted: Table 1, 20-mer peptides with native cysteines; vs untreated OA articular chondrocytes. This is another data set of the same source.

Assay [6] has as its system Cartilage explants. In words: Safranin-O staining of glycosaminoglycans in cartilage explants. To be noted: 14 days; BMP-7 1 nM, SEQ ID NO: 8 10 nM; 2 patients. The method, then:
Cartilage explants obtained from 2 patients were cultured for 14 days in the presence of BMP-7 (1 nM) or BMP-7 mimicking peptide […] (SEQ ID NO: 8) at 10 nM. Glycosaminoglycans (GAGs), an important component of the extracellular matrix (ECM), were stained with Safranin-O (in red) and other tissues are counterstained with Fast green (in green/blue).

For assay [7], the system named is Cartilage explants from OA patient's knee cartilage. As to the kind of experiment: PGE2 levels via ELISA in cartilage explants. The conditions noted are these: 14 days; BMP-7 1 nM, peptides 10 nM. The method, then:
Cartilage explants of 3 mm^2 were taken from OA patient's knee cartilage (n=6) and treated with BMP-7 (1 nM), with peptide […] (SEQ ID NO: 8) at 10 nM or a scrambled irrelevant control peptide (10 nM) for 14 days. Prostaglandin E2 (PGE2) levels, a pro-hypertrophic factor, were determined via an ELISA.
On the technique in general: ELISA stands for enzyme-linked immunosorbent assay.

The subject of assay [8] is Synovial tissue, Hoffa's fat pad tissue and meniscus tissue samples from OA patients. As to the kind of experiment: PGE2 levels via ELISA in synovial, Hoffa's fat pad and meniscus tissue samples. To be noted: 24 h; BMP-7 1 nM, peptides 10 nM. The method, then:
Synovial tissue samples from OA patients (n=6) were treated with BMP-7 (1 nM), with peptide […] (SEQ ID NO: 8) at 10 nM or a scrambled irrelevant control peptide (10 nM) for 24 h. PGE2 levels were determined via an ELISA.
Hoffa's fat pad tissue samples from OA patients (n=6) were treated with BMP-7 (1 nM) with peptide […] (SEQ ID NO: 8) at 10 nM or a scrambled irrelevant control peptide (10 nM) for 24 h. PGE2 levels were determined via an ELISA.
Meniscus tissue samples from OA patients (n=6) were treated with BMP-7 (1 nM) with peptide […] (SEQ ID NO: 8) at 10 nM or a scrambled irrelevant control peptide (10 nM) for 24 h. PGE2 levels were determined via an ELISA.

Assay [9] deals with Isolated chondrocytes from OA patients. As to the kind of experiment: Treatment of isolated chondrocytes from OA patients, gene expression via qRT-PCR. The conditions noted are these: 1 nM, 24 h, n=6. How it is done:
Isolated chondrocytes from OA patients (n=6) were treated with BMP-7 (1 nM) or the 12-mer peptide according to SEQ ID NO: 16 (1 nM) for 24 h. Pro-chondrogenic (FIG. 9A) and hypertrophic (FIGS. 9B, 9C and 9D) gene expression was determined via qRT-PCR and normalized for 28S rRNA levels.
On the technique in general: In qPCR the cycle at which signal appears reflects the starting amount.

The subject of assay [10] is cartilage explants from OA patient's knee articular cartilage. As to the kind of experiment: Treatment of cartilage explants, hypertrophic gene expression via qRT-PCR. The conditions noted are these: BMP-7 1 nM, SEQ ID NO: 16 10 nM, 24 h. How it is done: 4 mm2 cartilage explants were taken from non-lesion areas of OA patient's knee articular cartilage (n=5) and randomly assigned to different experimental treatment conditions (4 explants per treatment group). After a 24 h equilibration period the explants were treated with BMP-7 (1 nM) or the 12-mer peptide according to SEQ ID NO: 16 (10 nM) for 24 h. Hypertrophic gene expression was determined via qRT-PCR and normalized for 28S rRNA levels. After treatment with BMP-7 or the 12 mer we observed a downregulation of pro-hypertrophic genes, such as Col10a1 (FIG. 10A) and MMP13 (FIG. 10B).

Where [11] appears, read: Table 3, N- and C-terminally truncated peptides.

For “16 (YSEGESAFPLNS; homo sapiens) [compound 16]”, in [1], the ADAMTS5 expression result is on record as “+”, the ALP expression result is “+”, the BAPX1/NKX3.2 expression result is “+” and the COL10A expression result is given as “+”. In addition, in [1], the COX-2 expression entry is on record as “+” and the RUNX2 expression entry is given as “+”. In [2] (Table 3, N- and C-terminally truncated peptides, vs untreated OA articular chondrocytes), the ADAMTS5 expression entry is reported as “+”. Besides, the MMP13 expression entry in assay [3] (Table 2 (FIGS. 2-8), peptide 10 nM, 24 hours) is “+”. Moreover, in assay [3] (setting [11]), the ALP expression result is on record as “+”, the BAPX1/NKX3.2 expression result is recorded as “+”, the COL10A expression result was “+” and the COX-2 expression result was “+”. Besides, the RUNX2 expression entry in assay [3] (setting [11]) is listed as “+”.

On to “38 (EALRMANVAENSSSDQRQAC; homo sapiens) [compound 38]”, for which, in [4], the ADAMTS5 expression entry was “—”. Further, in assay [5], the ALP expression entry is “—”, the BAPX1/NKX3.2 expression result was “—”, the COL10A expression result is listed as “—” and the COX-2 expression entry is “—”. Further, in assay [5], the MMP13 expression result is on record as “—” and the RUNX2 expression entry is listed as “—”.

Take “39 (ACKKHELYVSFRDLGWQDWI; homo sapiens) [compound 39]”: the ADAMTS5 expression result in [4] was “—”. For the same substance, in assay [5], the ALP expression result is “—”, the BAPX1/NKX3.2 expression result is on record as “—”, the COL10A expression entry is “—” and the COX-2 expression entry is “—”. In assay [5], the MMP13 expression entry is listed as “—” and the RUNX2 expression entry was “—”.

For the substance “40 (WIIAPEGYAAYYCEGECAFP; homo sapiens) [compound 40]”, the ADAMTS5 expression entry in [4] is reported as “—”. In assay [5], the ALP expression entry is reported as “—”, the BAPX1/NKX3.2 expression result is “—”, the COL10A expression result is recorded as “—” and the COX-2 expression entry is “—”. For the same substance, in assay [5], the MMP13 expression entry was “—” and the RUNX2 expression result is given as “—”.

As to “41 (FPLNSYMNATNHAIVQTLVH; homo sapiens) [compound 41]”, the ADAMTS5 expression result in assay [4] was “—”. For the same substance, in assay [5], the ALP expression entry is listed as “—”, the BAPX1/NKX3.2 expression entry was “—”, the COL10A expression result is reported as “—” and the COX-2 expression entry is “—”. Moreover, in assay [5], the MMP13 expression result was “—” and the RUNX2 expression entry was “—”.

With “42 (VHFINPETVPKPCCAPTQLN; homo sapiens) [compound 42]”, in [4], the ADAMTS5 expression result was “—”. Moreover, in assay [5], the ALP expression entry is reported as “—”, the BAPX1/NKX3.2 expression entry is recorded as “—”, the COL10A expression entry is “—” and the COX-2 expression result is reported as “—”. For the same substance, in [5], the MMP13 expression entry was “—” and the RUNX2 expression result is “—”.

Consider “43 (LNAISVLYFDDSSNVILKKY; homo sapiens) [compound 43]”, for which the ADAMTS5 expression entry in [4] is “—”. Also, in [5], the ALP expression entry was “—”, the BAPX1/NKX3.2 expression entry was “—”, the COL10A expression entry is “—” and the COX-2 expression result was “—”. In assay [5], the MMP13 expression result was “—” and the RUNX2 expression result was “—”.

In the case of “44 (SSNVILKKYRNMVVRACGCH; homo sapiens) [compound 44]”, in assay [4], the ADAMTS5 expression result is “—”. In addition, in assay [5], the ALP expression result is recorded as “—”, the BAPX1/NKX3.2 expression entry is on record as “—”, the COL10A expression entry was “—” and the COX-2 expression entry is “—”. In addition, in assay [5], the MMP13 expression entry is on record as “—” and the RUNX2 expression result is listed as “—”.

In the case of “GYAAYYSEGESAFPLNSYMN (homo sapiens) [SEQ ID NO: 8]”, in [6], the “Safranin-O intensity (GAGs) compared to control” value is “increased Safranin-O intensity”. Also, the “PGE2 levels in the cartilage” value in assay [7] is “reduce PGE2 levels”. For the same substance, in [8], the “PGE2 levels in the surrounding tissues (synovial, Hoffa's fat pad, meniscus)” value is reported as “reduce PGE2 levels”. Besides, in assay [2] (independent of the tested concentration (1000, 100, 10 and 1 nM were tested)), the “suppression of the OA chondrocyte phenotype” value is on record as “efficiently suppressed”.

Turning to “YSEGESAFPLNS (homo sapiens) [SEQ ID NO: 16]”, in assay [9], the “COL10A1 gene expression (pro-hypertrophic)” value was “downregulation”, the “COX-2 gene expression (pro-hypertrophic)” value is reported as “downregulation”, the “Col2a1 gene expression (pro-chondrogenic)” value is listed as “upregulation” and the “RUNX2 gene expression (pro-hypertrophic)” value is listed as “downregulation”. Also, in assay [10], the Col10a1 gene expression entry is on record as “downregulation” and the MMP13 gene expression entry is “downregulation”.
